Measured values from patent US20160101148A1, “TREATMENT AND PREVENTION OF BACTERIAL SKIN INFECTIONS USING ORITAVANCIN” (priority 2013, published 2016).
≈ marks a conversion by molar mass, not a printed value.

Tests used:
[1] = test system: S. aureus strains (14 mecC MRSA, 2 mecA MRSA, ATCC 29213 MSSA); assay: Broth microdilution MIC determination; format: cell-based, Staphylococcus aureus; conditions: for MIC90 / MIC: Staphylococcus aureus
Method: The S. aureus (SA) strains used in this study were: ATCC 43300 (mecA methicillin-resistant SA [MRSA]); ATCC 33591 (mecA MRSA), ATCC 29213 (methicillin-susceptible SA; quality control strain) and 14 mecC MRSA obtained from the Staten Serum Institute (Copenhagen, Denmark).
Tests with oritavancin included polysorbate-80 (final test concentration of 0.002%) as described (CLSI 2012a; Arhin et al., 2008). Tests with daptomycin included CaCl2 at a concentration of 50 mg/L. MICs were read after 24 h incubation.

MRSA isolates = MRSA isolates in a surveillance study (Arhin et al., 2009); cited from earlier work
[2] = ATCC 29213 / ATCC 33591 / MRSA / MSSA, ATCC 33591 MRSA (mecA)
[3] = ATCC 29213 / ATCC 43300 / MRSA / MSSA, ATCC 43300 MRSA (mecA)

Structure (SMILES) | MIC90 [1] [µg/mL] | MIC ([1]; 57147 MRSA (mecC)) [µg/mL] | MIC ([1]; 70611 MRSA (mecC)) [µg/mL] | MIC ([1]; 73348 MRSA (mecC)) [µg/mL] | MIC ([1]; 73415 MRSA (mecC)) [µg/mL] | MIC ([1]; 73617 MRSA (mecC)) [µg/mL] | MIC ([1]; 73829 MRSA (mecC)) [µg/mL] | MIC ([1]; 75814 MRSA (mecC)) [µg/mL] | MIC ([1]; 76918 MRSA (mecC)) [µg/mL] | MIC ([1]; 77431 MRSA (mecC)) [µg/mL] | MIC ([1]; 77601 MRSA (mecC)) [µg/mL] | MIC ([1]; 77950 MRSA (mecC)) [µg/mL] | MIC ([1]; 77964 MRSA (mecC)) [µg/mL] | MIC ([1]; 78085 MRSA (mecC)) [µg/mL] | MIC ([1]; 78651 MRSA (mecC)) [µg/mL] | MIC ([1]; ATCC 29213 (MSSA)) [µg/mL] | MIC [1, 2] [µg/mL] | MIC [1, 3] [µg/mL] | further results
CN[C@H](CC(C)C)C(=O)N[C@H]1C(=O)N[C@@H](CC(N)=O)C(=O)N[C@H]2C(=O)N[C@H]3C(=O)N[C@H](C(=O)N[C@H](C(=O)O)c4cc(O)cc(O)c4-c4cc3ccc4O)[C@H](O)c3ccc(c(Cl)c3)Oc3cc2cc(c3O[C@@H]2O[C@H](CO)[C@@H](O)[C@H](O)[C@H]2O[C@H]2C[C@](C)(N)[C@H](O)[C@H](C)O2)Oc2ccc(cc2Cl)[C@H]1O [Vancomycin, vancomycin] | 1 (≈ 0.69 µM) | 1 (≈ 0.69 µM) | 1 (≈ 0.69 µM) | 1 (≈ 0.69 µM) | 1 (≈ 0.69 µM) | 1 (≈ 0.69 µM) | 1 (≈ 0.69 µM) | 1 (≈ 0.69 µM) | 1 (≈ 0.69 µM) | 1 (≈ 0.69 µM) | 1 (≈ 0.69 µM) | 1 (≈ 0.69 µM) | 1 (≈ 0.69 µM) | 1 (≈ 0.69 µM) | 1 (≈ 0.69 µM) | 1 (≈ 0.69 µM) | 1 (≈ 0.69 µM) | 1 (≈ 0.69 µM) | MIC ([1]; all strains tested): 1 µg/mL (≈ 0.69 µM)
CN[C@H](CC(C)C)C(=O)N[C@H]1C(=O)N[C@@H](CC(N)=O)C(=O)N[C@H]2C(=O)N[C@H]3C(=O)N[C@H](C(=O)N[C@H](C(=O)O)c4cc(O)cc(O)c4-c4cc3ccc4O)[C@H](O[C@H]3C[C@](C)(N)[C@@H](O)[C@H](C)O3)c3ccc(c(Cl)c3)Oc3cc2cc(c3O[C@@H]2O[C@H](CO)[C@@H](O)[C@H](O)[C@H]2O[C@H]2C[C@](C)(NCc3ccc(-c4ccc(Cl)cc4)cc3)[C@@H](O)[C@H](C)O2)Oc2ccc(cc2Cl)[C@H]1O [Oritavancin, N^DISACC-(4-(4-chlorophenyl)benzyl)A82846B] | 0.06 (≈ 0.0335 µM) | 0.03 (≈ 0.0167 µM) | 0.06 (≈ 0.0335 µM) | 0.06 (≈ 0.0335 µM) | 0.06 (≈ 0.0335 µM) | 0.03 (≈ 0.0167 µM) | 0.03 (≈ 0.0167 µM) | 0.06 (≈ 0.0335 µM) | 0.03 (≈ 0.0167 µM) | 0.03 (≈ 0.0167 µM) | 0.03 (≈ 0.0167 µM) | 0.03 (≈ 0.0167 µM) | 0.06 (≈ 0.0335 µM) | 0.06 (≈ 0.0335 µM) | 0.06 (≈ 0.0335 µM) | 0.06 (≈ 0.0335 µM) | 0.06 (≈ 0.0335 µM) | 0.06 (≈ 0.0335 µM) | MIC ([1]; QC and mecA strains): 0.06 µg/mL (≈ 0.0335 µM); MIC range ([1]; mecC strains): 0.03 to 0.06 µg/mL; MIC90 (MRSA isolates): 0.12 µg/mL (≈ 0.0669 µM)
